This is an account of results in patent US8889699B2, “5-fluorouracil derivative” (Delta-Fly Pharma, Inc., priority 2009, dated 2014).

Like-named read-outs stand apart in the source and are kept apart here.

One data set relates to sarcoma 180 cells. The data set can be described thus: Inhibition of intracellular phosphorylation of 5-FU in cancer cells. Format: cell-based, mouse. As to conditions: for inhibition at 10 µM / inhibition at 100 µM: Mus musculus, Sarcoma-180, 0.5 h. The procedure: (§1) • (a) Test liquid preparation 1: Compound I-2 or I-10 of the present invention was dissolved to a concentration of 1 mM in cold physiological saline. The resulting product was further diluted 10-fold with physiological saline, yielding a 100-μM solution. • (b) Test liquid preparation 2: As an OPRT inhibitor, which inhibits the phosphorylation of 5-FU, citrazinic acid (Citra.A.) was dissolved to a concentration of 1 mM in cold physiological saline, and further diluted 10-fold with physiological saline, yielding a 100-μM solution. • (c) Preparation of cancer cell suspension: Ascites-type sarcoma 180 cells were preliminarily transplanted intraperitoneally into an ICR mouse and proliferated therein for use in the test as raw (intact) cells. The proliferated cells were isolated and then washed with physiological saline. […] Immediately after the completion of the reaction, 4 mL of a cold Hanks solution was added to the reaction solution, and the cells were washed and separated by centrifugation. After this procedure was repeated twice, 2 mL of a cold 5% trichloroacetic acid (TCA) solution was added to the cell pellet to disrupt the cells, and 5-FU and its nucleotide metabolites were extracted. Subsequently, a portion of the nucleic acid extract was applied to a silica gel 60F254 plate and developed with a mixed liquid comprising chloroform-methanol-acetic acid (17:3:1) to isolate the nucleotide moiety. The radioactivity thereof was measured and the concentration of 5-FU phosphorylation was measured.
as §1, with “1: Compounds I-9, I-11, I-12, and I-13” for “1: Compound I-2 or I-10”, “invention were separately” for “invention was”, “saline. Each of the” for “saline. The”, “resulting products” for “resulting product”, “acid” for “acid (Citra.A.)”

Data set [1] concerns human gastric cancer strain (SC-2). The conditions noted are these: 14 days, day 15; for Average weight change (%) / Tumor proliferation inhibition ratio (%): Test Example 3. The procedure:
The resulting product was stirred with a stirrer at room temperature for about 10 minutes. […] Thereafter, ultrasonic treatment was performed under ice cooling for about 5 minutes, thereby obtaining a BOF-A2 drug liquid to be used at a dose of 14 mg/kg/day, 21 mg/kg/day, or 28 mg/kg/day. • (f) Experiment: The human gastric cancer strain (SC-2) was subcutaneously transplanted into the back of a BALB/cA-nu mouse and preliminarily proliferated therein. The proliferated strain was extracted, cut into about 2 mm square pieces with scissors in physiological saline, and subcutaneously inoculated to the right axillary region of mice of the same strain, 5 to 6 weeks of age, using a transplantation needle. […] Then, drug administration was initiated from the next day. Each of the test liquids shown in (a) to (e) above was administered orally to the mice in each of the test drug groups using a sonde for oral administration at a dose of 0.1 ml per 10 g body weight once a day for 14 continuous days. In the same manner as the above, the cancer-bearing mice in the control group were subjected to oral administration of only 0.5% HPMC liquid for 14 continuous days.
The tumor volume of each mouse in each group before the initiation of the treatment, on day 3, day 5, day 8 (1 week after), day 11, and day 15 (2 weeks after), i.e., after termination of the administration, was calculated using Equation 1 below, and respective relative tumor volume (RTV) relative to the tumor volume at the time of initiation of the treatment was calculated. In relation to the antitumor effect, the average value of the tumor proliferation inhibition ratio (IR; %) was calculated from the average tumor volume of each treatment group on day 15 (after termination of the treatment) relative to that of the control group on day 15, using Equation 2. […] Along therewith, a weight change ratio was calculated from the body weight of the mice at the time of the termination of the drug administration relative to the body weight of the mice at the time of the initiation of the administration, using Equation 3. […] Tumor volume(mm^3)=(major axis)×(minor axis)^2×½ Equation 1: Tumor proliferation inhibition ratio(IR, %)=[1−(average tumor volume of treatment group)/(average tumor volume of control group)]×100 Equation 2: Average weight change ratio(%)=[(average weight on Day 15)−(average weight on Day 1)]/(average weight on Day 1)×100 Equation 3: […]
The resulting product was stirred with a stirrer at room temperature for about 10 minutes. […] The proliferated strain was extracted, cut into about 2 mm square pieces with scissors in physiological saline, and subcutaneously inoculated to the right axillary region of mice of the same strain, 5 to 6 weeks of age, using a transplantation needle. […] Then, drug administration was initiated from the next day. Each of the test liquids shown in (a) to (c) above was administered orally to the mice in each of the test drug groups using a sonde for oral administration at a dose of 0.1 ml per 10 g body weight once a day for 14 continuous days. In the same manner as the above, the cancer-bearing mice in the control group were subjected to oral administration of only 0.5% HPMC liquid for 14 continuous days.
The tumor volume of each mouse in each group before the initiation of the treatment, on day 3, day 5, day 8 (1 week after), day 11, and day 15 (2 weeks after), i.e., after termination of the administration, was calculated using Equation 1 below, and respective relative tumor volume (RTV) relative to the tumor volume at the time of initiation of the treatment was calculated. In relation to the antitumor effect, the average value of the tumor proliferation inhibition ratio (IR; %) was calculated from the average tumor volume of each treatment group on day 15 (after termination of the treatment) relative to that of the control group on day 15, using Equation 2.

Where [2] appears, read: Conc. 10 μM, 30 min. Incubation, 5-FU 2 μM, Table 6.
[3] abbreviates: Conc. 10 μM, 30 min, Table 3 run with control 60.93.
Setting [4] is: Conc. 10 μM, 30 min, Table 3 run with control 63.32.
[5] abbreviates: Conc. 100 μM, 30 min. Incubation, 5-FU 2 μM, Table 6.
Where [6] appears, read: Conc. 100 μM, 30 min, Table 3 run with control 60.93.
[7] abbreviates: Conc. 100 μM, 30 min, Table 3 run with control 63.32.
Setting [8] is: Conc. 10 μM, 30 min. Incubation, 5-FU 2 μM, Table 6, read-out: Inhibition (%) of phosphorylation of 5-FU.
Setting [9] is: Conc. 10 μM, 30 min, Table 3 run with control 60.93, read-out: % Inhibition of 5-FU phosphorylation.
Where [10] appears, read: Conc. 10 μM, 30 min, Table 3 run with control 63.32, read-out: % Inhibition of 5-FU phosphorylation.
Setting [11] is: Conc. 100 μM, 30 min. Incubation, 5-FU 2 μM, Table 6, read-out: Inhibition (%) of phosphorylation of 5-FU.
Setting [12] is: Conc. 100 μM, 30 min, Table 3 run with control 60.93, read-out: % Inhibition of 5-FU phosphorylation.
[13] abbreviates: Conc. 100 μM, 30 min, Table 3 run with control 63.32, read-out: % Inhibition of 5-FU phosphorylation.
[14] abbreviates: concentration of 100 μM, reaction for 30 minutes, read-out: percent inhibition of intracellular phosphorylation of 5-FU.
Setting [15] is: concentration of 10 μM, reaction for 30 minutes, read-out: percent inhibition of intracellular phosphorylation of 5-FU.

By inhibition is commonly meant the share of the control response that was lost under treatment. On to `O=C(O)c1cc(O)nc(O)c1` [Citra. A., citrazinic acid, reference compound], for which the “RNA Fraction” value in the data set on sarcoma 180 cells (setting [2]) came out at 62.19 pmol/1 × 10^7 cells; with sarcoma 180 cells (setting [5]), 60.13 pmol/1 × 10^7 cells. The F-nucleotides turned out to be 55.78 pmol/1 × 10^7 cells in the data set with sarcoma 180 cells (setting [3]), 62.19 pmol/1 × 10^7 cells in the data set with sarcoma 180 cells (setting [4]), 51.72 pmol/1 × 10^7 cells with sarcoma 180 cells (setting [6]) and 60.13 pmol/1 × 10^7 cells in the data set on sarcoma 180 cells (setting [7]). Besides, the figures for the inhibition at 10 µM with sarcoma 180 cells (setting [8]), in the data set with sarcoma 180 cells (setting [9]) and with sarcoma 180 cells (setting [10]) were 1.8%, 8.5% and 1.8%, respectively. Also, the inhibition at 100 µM with sarcoma 180 cells (setting [11]) was 5%; in the data set with sarcoma 180 cells (setting [12]), 15.1%; with sarcoma 180 cells (setting [13]), 5.1%; in the data set on sarcoma 180 cells (setting [14]) it was 5 to 15%.

As to `CCOCn1cc(F)c(=O)n(C(=O)c2cccc(C(=O)Oc3cc(OC(=O)c4cc(O)nc(O)c4)c(Cl)cn3)c2)c1=O` [Compound I-2, 3-{3-[4-(2,6-dihydroxyisonicotinoyloxy)-5-chloro-2-pyridyloxycarbonyl]benzoyl}-1-ethoxymethyl-5-fluorouracil], the F-nucleotides with sarcoma 180 cells (setting [3]) was 47.26 pmol/1 × 10^7 cells; in the data set on sarcoma 180 cells (setting [6]), 28.88 pmol/1 × 10^7 cells. In addition, the figures for the inhibition at 10 µM in the data set on sarcoma 180 cells (setting [9]) and in the data set on sarcoma 180 cells (setting [15]) were 22.4% and 20 to 30%, respectively. In addition, the values for the inhibition at 100 µM in the data set on sarcoma 180 cells (setting [12]) and with sarcoma 180 cells (setting [14]) were 52.6% and 50 to 60%, respectively. Also, the “Average weight change (%)” value in data set [1] (15.0 mg/kg/day oral) is on record as −1.13%; in data set [1] (22.5 mg/kg/day oral) it was −4.18%; in data set [1] (30.0 mg/kg/day oral) it was 1.76%. Moreover, the “Tumor proliferation inhibition ratio (%)” value stood at 41.1% in data set [1] (15.0 mg/kg/day oral), 56.0% in data set [1] (22.5 mg/kg/day oral) and 67.9% in data set [1] (30.0 mg/kg/day oral).

As for `CCOCn1cc(F)c(=O)n(C(=O)c2cccc(C(=O)Oc3cc(OC(=O)c4cc(OC(=O)C5CCCC5)nc(OC(=O)C5CCCC5)c4)c(Cl)cn3)c2)c1=O` [Compound I-9, 3-{3-[4-(2,6-dicyclopentanecarbonyloxyisonicotinoyloxy)-5-chloro-2-pyridyloxycarbonyl]benzoyl}-1-ethoxymethyl-5-fluorouracil], the “RNA Fraction” value in the data set on sarcoma 180 cells (setting [2]) was 27.42 pmol/1 × 10^7 cells; with sarcoma 180 cells (setting [5]) it was 23.61 pmol/1 × 10^7 cells. Also, the values for the inhibition at 10 µM with sarcoma 180 cells (setting [8]) and in the data set with sarcoma 180 cells (setting [15]) were 56.7% and 35 to 57%, respectively. The inhibition at 100 µM was 62.7% in the data set on sarcoma 180 cells (setting [11]) and 56 to 63% in the data set on sarcoma 180 cells (setting [14]). Further, the “BWC (% initial)” value in data set [1] (49.5 mg/kg oral, Test Example 6) is on record as “+4.67 % initial”. Further, in data set [1] (49.5 mg/kg oral, equivalent to 12.5 mg/kg of S-1, Test Example 6), the “IR (%)” value was determined as 29.5%.

As to `CCOCn1cc(F)c(=O)n(C(=O)c2cccc(C(=O)Oc3cc(OC(=O)c4cc(OC(C)=O)nc(OC(C)=O)c4)c(Cl)cn3)c2)c1=O` [Compound I-10, 3-{3-[4-(2,6-diacetyloxyisonicotinoyloxy)-5-chloro-2-pyridyloxycarbonyl]benzoyl}-1-ethoxymethyl-5-fluorouracil], the F-nucleotides was 40.71 pmol/1 × 10^7 cells with sarcoma 180 cells (setting [4]) and 27.62 pmol/1 × 10^7 cells in the data set on sarcoma 180 cells (setting [7]). Further, the inhibition at 10 µM in the data set on sarcoma 180 cells (setting [10]) is 35.7%; in the data set on sarcoma 180 cells (setting [15]), 20 to 30%. The inhibition at 100 µM was 56.4% with sarcoma 180 cells (setting [13]) and 50 to 60% in the data set with sarcoma 180 cells (setting [14]). Also, the “Average weight change (%)” value is 1.97% in data set [1] (25.7 mg/kg/day oral), −0.05% in data set [1] (34.2 mg/kg/day oral) and −4.31% in data set [1] (42.8 mg/kg/day oral). The “Tumor proliferation inhibition ratio (%)” value stood at 31.9% in data set [1] (25.7 mg/kg/day oral), 51.0% in data set [1] (34.2 mg/kg/day oral) and 57.7% in data set [1] (42.8 mg/kg/day oral).
